Source: publication PMC9492458, “Development and structure–activity relationships of tanshinones as selective 11β-hydroxysteroid dehydrogenase 1 inhibitors” (Natural Products and Bioprospecting, 2022)
Read-outs that look alike come from different tables or passages of the source.

Assays:
11β-HSD1 in liver = target: T1, 11β-HSD1 in liver (Mus musculus, UniProt P50172); test: Measurement of 11β-HSD1 activity in liver of ob/ob mice; format: in vivo; details: single oral dose 300 mg/kg
T1 construct: from tissue
Method: After single oral administration of 1, 17 or 30 at dose of 300 mg/kg to ob/ob mice, the enzymatic activity of 11β-HSD1 in liver was measured.
B6.V-Lepob/Lepob mice (Jackson Laboratory, Bar Harbor, ME, USA) were bred at the Shanghai Institute of Materia Medica, Chinese Academy of Sciences. All mice were housed in a specific, pathogen-free class laboratory and were maintained at a controlled room temperature (22–24 °C) under a 12 h light–dark cycle with free access to water and food. The animal experiments were conducted in accordance with the guides by the Institutional Animal Care and Utilization Committee (IACUC) of Shanghai Institute of Materia Medica (SIMM), Chinese Academy of Sciences (CAS). The protocol was approved by the IACUC, SIMM, CAS with accreditation number of 2017-08-LY-67. All animal experiment complied with the ARRIVE guidelines for the care and use of laboratory animals.
Ob/ob mice (10 weeks’ old) were given a single dose of 1, 17, 30 (300 mg/kg) or vehicle (0.5% carboxymethyl cellulose, CMC), p.o. After 4 h and 8 h, animals were euthanized with an i.p injection of sodium pentobarbital (60 mg/kg) and the livers were isolated and stored as described above. The liver tissue was homogenized (1 mg/mL) in cold homogenization buffer, and […] of liver homogenates was used to analyze the 11β-HSD1 activity by SPA, as previously described.

human 11β-HSD2 = target: T2, human 11β-HSD2 (Homo sapiens, UniProt P80365); test: scintillation proximity assay (SPA), microsomes of HEK-293 cells transfected with human 11β-HSD2
T2 sequence (P80365 1-405): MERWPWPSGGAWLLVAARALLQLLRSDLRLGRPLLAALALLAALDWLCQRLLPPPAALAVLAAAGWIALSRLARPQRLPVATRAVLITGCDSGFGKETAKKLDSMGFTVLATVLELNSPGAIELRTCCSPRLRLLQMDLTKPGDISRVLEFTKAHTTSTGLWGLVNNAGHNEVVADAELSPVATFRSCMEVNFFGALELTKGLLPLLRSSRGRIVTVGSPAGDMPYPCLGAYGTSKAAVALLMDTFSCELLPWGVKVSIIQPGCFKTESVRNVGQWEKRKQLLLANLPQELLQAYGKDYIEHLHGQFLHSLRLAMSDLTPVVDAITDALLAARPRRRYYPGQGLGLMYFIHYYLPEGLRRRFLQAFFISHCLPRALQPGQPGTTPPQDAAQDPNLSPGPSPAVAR
Method: (§1) With diverse tanshinones in hand, inhibition of human and mouse 11β-HSD1 enzymatic potency was measured by scintillation proximity assay (SPA) using microsomes containing 11β-HSD1 [46, 47]. Results are reported as the average of two or three independent experiments at each concentration.
(§2) The SPA was used to screen for inhibitors of 11β-HSDs [48], with the microsome fractions prepared from the HEK-293 cells stably transfected with either human or mouse 11β-HSD1 or 11β-HSD2 as the enzyme source. […] Reactions were initiated by the addition of 11β-HSD1 or 11β-HSD2, enzyme. […] The plates were incubated under plastic film on an orbital shaker for 120 min at room temperature before counting. The amount of [^3H]-cortisol generated in 11β-HSD1 enzyme reaction or remaining from the 11β-HSD2 enzyme reaction was captured by the beads and determined in a microplate liquid scintillation counter. The % inhibition was calculated relative to a non-inhibited control. Data were obtained from two or three independent experiments. IC50 values were calculated from concentration–response curves by a non-linear regression analysis using Prism Version 6.

mouse 11β-HSD2 = target: T3, mouse 11β-HSD2 (Mus musculus, UniProt P51661); test: scintillation proximity assay (SPA), microsomes of HEK-293 cells transfected with mouse 11β-HSD2
T3 sequence (P51661 1-386): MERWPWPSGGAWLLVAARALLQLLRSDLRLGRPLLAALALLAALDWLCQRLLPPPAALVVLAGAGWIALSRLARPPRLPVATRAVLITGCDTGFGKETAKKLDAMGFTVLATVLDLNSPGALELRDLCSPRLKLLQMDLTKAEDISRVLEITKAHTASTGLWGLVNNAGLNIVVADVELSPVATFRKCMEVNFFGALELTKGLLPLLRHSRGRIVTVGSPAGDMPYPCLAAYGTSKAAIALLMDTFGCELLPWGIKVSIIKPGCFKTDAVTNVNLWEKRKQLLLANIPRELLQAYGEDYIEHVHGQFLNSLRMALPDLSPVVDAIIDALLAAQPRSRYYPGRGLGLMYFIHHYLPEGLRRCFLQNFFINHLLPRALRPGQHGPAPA
Method: as §1, §2

human 11β-HSD1 = human 11β-HSD1 (Homo sapiens, UniProt P28845); test: scintillation proximity assay (SPA), microsomes of HEK-293 cells transfected with human 11β-HSD1; details: for Human SI (selectivity index): SI = IC50(HSD2)/IC50(HSD1); for inhibition at 1 µM: read-out: Inhibitory ratio h-HSD1, at 1.0 μM, averages of three determinations
Method: as §1, §2

mouse 11β-HSD1 = mouse 11β-HSD1 (Mus musculus, UniProt P50172); test: scintillation proximity assay (SPA), microsomes of HEK-293 cells transfected with mouse 11β-HSD1; details: for Mouse SI (selectivity index): SI = IC50(HSD2)/IC50(HSD1); for inhibition at 1 µM: read-out: Inhibitory ratio m-HSD1, at 1.0 μM, averages of three determinations
Method: as §1, §2

[1] = target: T4, 11β-HSD1 in 3T3-L1 adipocytes (Mus musculus, UniProt P50172); test: 11β-HSD1 activity assay in 3T3-L1 adipocytes; format: cell-based; details: for IC50: 1 h incubation, averages of three determinations, read-out: IC50, cellular assay on 3T3-L1 adipocyte against 11β-HSD1; for Emax: read-out: Max effect
T4 construct: endogenous in cells; host or cells: 3T3-L1 adipocytes
Method: 11β-HSD1 enzyme inhibition in adipose tissue is believed to be important for achieving efficacy in vivo [11, 12]. Derivatives with potent enzymatic potency and excellent selectivity profiles (13, 14, 17, 28a, 28b and 30) were also evaluated their 11β-HSD1 inhibition in 3T3-L1 adipocyte.
The reductase activity of 11β-HSD1 in intact 3T3-L1 adipocytes was determined by measuring the rate of conversion of cortisone to cortisol. To explore the effect of compounds on 11β-HSD1 reductase activity, 3T3-L1 adipocytes were incubated for 1 h at 37 °C in serum-free DMEM containing 6.25 nmol/L [1,2-(N)^3H]-cortisone and different concentrations of compounds, according to experimental design. 0.1% DMSO was set as the vehicle control and MK544 was set as the positive control. At the end of the incubation, 80 μL of medium was pipetted into a transparent bottom 96-well plate, and 35 μL of SuperBlock Blocking Buffer containing 10 g/L of protein A-coated yttrium silicate beads and 3 mg/L of anti-cortisol antibodies was added. The mixtures were shaken in the dark for 2 h and then used for liquid scintillation readings. The inhibition effect was calculated by the following equation: Inhibition%=Data(compound)-Data(DMSO Vehicle)/Data(MK54410μM)-Data(DMSO Vehicle)×100%.

[2] = inhibition relative to MK544 10 μM

Sequence of human 11β-HSD1 (P28845 whole entry): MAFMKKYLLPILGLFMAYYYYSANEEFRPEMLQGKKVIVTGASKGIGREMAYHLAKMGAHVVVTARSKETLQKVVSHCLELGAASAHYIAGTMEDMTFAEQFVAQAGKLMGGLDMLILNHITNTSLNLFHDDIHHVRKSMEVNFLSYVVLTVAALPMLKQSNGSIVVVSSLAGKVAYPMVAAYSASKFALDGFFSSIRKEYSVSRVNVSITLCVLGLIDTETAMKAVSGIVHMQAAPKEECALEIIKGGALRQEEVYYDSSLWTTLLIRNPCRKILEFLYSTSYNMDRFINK
T4 sequence (P50172 whole entry): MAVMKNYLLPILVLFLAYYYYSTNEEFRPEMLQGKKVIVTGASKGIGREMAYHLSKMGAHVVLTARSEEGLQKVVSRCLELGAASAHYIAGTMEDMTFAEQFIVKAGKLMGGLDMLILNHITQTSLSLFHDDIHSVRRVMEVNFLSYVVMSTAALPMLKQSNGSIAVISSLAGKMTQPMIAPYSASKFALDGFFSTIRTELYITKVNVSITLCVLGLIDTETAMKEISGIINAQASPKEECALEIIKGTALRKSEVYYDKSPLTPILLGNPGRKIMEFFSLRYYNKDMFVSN
Sequence of mouse 11β-HSD1 (P50172 whole entry): as above
T1 sequence (P50172 whole entry): as above

| Compound | decrease in 11β-HSD1 activity in liver (11β-HSD1 in liver; 4 h after treatment) [%] | decrease in 11β-HSD1 activity in liver (11β-HSD1 in liver; 8 h after treatment) [%] | IC50 (human 11β-HSD2) [µM] | IC50 (mouse 11β-HSD2) [µM] | IC50 (mouse 11β-HSD2; read-out: Mouse (IC50) 11β-HSD2, Table 3, averages of two determinations) [µM] | IC50 (human 11β-HSD1) [µM] | Human SI (selectivity index) (human 11β-HSD1; Table 1) | inhibition at 1 µM (human 11β-HSD1) [%] | IC50 (mouse 11β-HSD1) [µM] | Mouse SI (selectivity index) (mouse 11β-HSD1; Table 1) | Mouse SI (selectivity index) (mouse 11β-HSD1; Table 3) | inhibition at 1 µM (mouse 11β-HSD1) [%] | IC50 [1] [µM] | Emax [1, 2] [%] | Human SI (selectivity index) (human 11β-HSD1; Table 3) | Max effect [1, 2] [%] |
| --- | --- | --- | --- | --- | --- | --- | --- | --- | --- | --- | --- | --- | --- | --- | --- | --- |
| Cc1coc2c1C(=O)C(=O)c1c-2ccc2c1CCCC2(C)C [Compound 1, tanshinone IIA] | 32.9 | 48.4 | 135 ± 72.5 | > 1000 | > 1000 | 0.0353 ± 0.0154 | 3838 | 76.6 ± 1.3 | 0.0322 ± 0.0025 | > 31,250 | > 31,055.9 | 89.6 ± 0.6 | 2 ± 0.6 | 104 ± 1 |  |  |
| Cc1coc2c1C(=O)C(=O)c1c-2ccc2c1C=CCC2(C)C [Compound 13] |  |  | 2.7 ± 1 | > 100 |  | 0.27 |  | 67.4 ± 1.6 | 0.0593 ± 0.0095 |  | > 1689.2 | 92.3 ± 2.7 | 7.9 | 102 ± 0.3 | 9.9 |  |
| Cc1coc2c1C(=O)C(=O)c1c-2ccc2c1C=CC(=O)C2(C)C [Compound 14] |  |  | 5.9 ± 3.4 | > 100 |  | 0.3 |  | 57.2 ± 2 | 0.0539 ± 0.0093 |  | > 1855.3 | 85.9 ± 1.6 | > 4 | 104 ± 1.2 | 19.6 |  |
| Cc1coc2c1C(=O)C(=O)c1c-2ccc2c1CCC(=O)C2(C)C [Compound 17] |  | 38.5 | 5.9 ± 2.3 | > 100 |  | 0.21 |  | 63.5 ± 3.2 | 0.0069 ± 0.0007 |  | > 14,492.7 | 84.6 ± 1.4 | 1.4 ± 0.1 | 90 ± 0.4 | 28.0 |  |
| Cc1c(COCO)oc2c1C(=O)C(=O)c1c-2ccc2c1CCCC2(C)C [Compound 28a] |  |  | 4.1 ± 0.7 | > 100 |  | 0.149 ± 0.0339 |  | 74.3 ± 2.1 | 0.0793 ± 0.0162 |  | > 1261.0 | 79.2 ± 2.2 | 3.9 ± 0.1 | 104 ± 0.9 | 27.5 |  |
| Cc1c(CO)oc2c1C(=O)C(=O)c1c-2ccc2c1CCCC2(C)C [Compound 28b] |  |  | 6.3 ± 0.9 | > 100 |  | 0.0998 ± 0.0105 |  | 75.3 ± 0.8 | 0.0702 ± 0.0134 |  | > 1426.5 | 88.5 ± 0.1 | 3.1 ± 0.6 | 100 ± 4 | 62.9 |  |
| Cc1c(CN2CCCCC2)oc2c1C(=O)C(=O)c1c-2ccc2c1CCCC2(C)C [Compound 29b] |  |  | 6.5 ± 3.6 | > 100 |  | 0.0426 ± 0.0044 |  | 87.8 ± 0.8 | 0.0655 ± 0.0037 |  | > 1526.7 | 89.5 |  |  | 151.9 |  |
| Cc1c(CN2CCN(C)CC2)oc2c1C(=O)C(=O)c1c-2ccc2c1CCCC2(C)C [Compound 29d] |  |  | 2.5 ± 0.6 | > 100 |  | 0.183 ± 0.0325 |  | 67.3 ± 3.1 | 0.272 ± 0.0602 |  | > 367.2 | 55.6 ± 1.8 |  |  | 13.6 |  |
| CC1(C)CCCc2c1ccc1c2C(=O)C(=O)c2c(CO)coc2-1 [Compound 30] |  | 41.2 |  | > 100 |  | 0.0578 ± 0.013 |  | 82 ± 2.7 | 0.0222 ± 0.0006 |  | > 4510.6 | 98.6 ± 0.7 | 4.4 ± 0.1 | 105 |  |  |
| Cc1c(Br)oc2c1C(=O)C(=O)c1c-2ccc2c1C=CCC2(C)C [Compound 33] |  |  | 1.2 ± 0.5 | > 100 |  | 0.21 |  | 70 ± 0.4 | 0.0393 ± 0.0076 |  | > 2551.0 | 87.3 ± 1.3 |  |  | 5.8 |  |
| CC1(C)C(=O)C=Cc2c1ccc1c2C(=O)C(=O)c2c(CO)coc2-1 [Compound 34] |  |  | 1.9 ± 0.3 | > 100 |  | 0.85 ± 0.2 |  | 53.9 ± 1.6 | 0.0672 ± 0.0064 |  | > 1488.1 | 90.8 ± 1.7 |  |  | 2.2 |  |
| C1CCc2nnc(C34CC5CC(CC(C5)C3)C4)n2CC1 [MK544, reference compound] |  |  |  |  |  |  |  |  |  |  |  |  | 0.4 ± 0.1 |  |  | 98.0 ± 0.7 |
